Biological target: A/H3N2 influenza NA (Influenza A virus (H3N2), UniProt Q91IQ5)
Assay type: biochemical, A/H3N2 influenza virus (clinical isolate from Hong Kong)
Conditions: 10 µM

First: CCC(CC)O[C@@H]1C=C(C(=O)O)C[C@H](NC(=O)c2cc(C3CC3)nn2-c2cccc(C)c2)[C@H]1NC(C)=O [Compound 26c, (3R,4R,5S)-4-acetamido-5-(3-cyclopropyl-1-(m-tolyl)-1H-pyrazole-5-carboxamido)-3-(pentan-3-yloxy) cyclohex-1-ene-1-carboxylic acid]
Second: CCC(CC)O[C@@H]1C=C(C(=O)O)C[C@H](NC(=O)c2cc(C3CC3)nn2-c2ccccc2C)[C@H]1NC(C)=O [Compound 26b, (3R,4R,5S)-4-acetamido-5-(3-cyclopropyl-1-(o-tolyl)-1H-pyrazole-5-carboxamido)-3-(pentan-3-yloxy) cyclohex-1-ene-1-carboxylic acid]
The “Inhibitory rate against A/H3N2 influenza NA” value (from here on “Inhibitory rate”) of the first is lower: 31.53% for the first, 72.80% for the second.

Going from `CCC(CC)O[C@@H]1C=C(C(=O)O)C[C@H](NC(=O)c2cnn(Cc3cccc([N+](=O)[O-])c3)c2)[C@H]1NC(C)=O` [Compound 6d, (3R,4R,5S)-4-acetamido-5-(1-(3-nitrobenzyl)-1H-pyrazole-4-carboxamido)-3-(pentan-3-yloxy) cyclohex-1-ene-1-carboxylic acid] to `CCC(CC)O[C@@H]1C=C(C(=O)O)C[C@H](NC(=O)c2cnn(Cc3cccc(Cl)c3)c2)[C@H]1NC(C)=O` [Compound 6c, (3R,4R,5S)-4-acetamido-5-(1-(3-chlorobenzyl)-1H-pyrazole-4-carboxamido)-3-(pentan-3-yloxy) cyclohex-1-ene-1-carboxylic acid], the “Inhibitory rate” value rises from 12.26% to 23.88%.

Compared with `CCC(CC)O[C@@H]1C=C(C(=O)O)C[C@H](NC(=O)c2cnn(-c3ccc(C)cc3)c2)[C@H]1NC(C)=O` [Compound 6i, (3R,4R,5S)-4-acetamido-3-(pentan-3-yloxy)-5-(1-(p-tolyl)-1H-pyrazole-4-carboxamido) cyclohex-1-ene-1-carboxylic acid], `CCC(CC)O[C@@H]1C=C(C(=O)O)C[C@H](NC(=O)c2cnn(-c3ccc(Cl)cc3)c2)[C@H]1NC(C)=O` [Compound 6k, (3R,4R,5S)-4-acetamido-5-(1-(4-chlorophenyl)-1H-pyrazole-4-carboxamido)-3-(pentan-3-yloxy) cyclohex-1-ene-1-carboxylic acid] is lower in “Inhibitory rate” value: 52.31% for the first, 25.67% for the second.

Compared with `CCC(CC)O[C@@H]1C=C(C(=O)O)C[C@H](NC(=O)c2cc(-c3ccccc3)n[nH]2)[C@H]1NC(C)=O` [Compound 12a, (3R,4R,5S)-4-acetamido-3-(pentan-3-yloxy)-5-(3-phenyl-1H-pyrazole-5-carboxamido) cyclohex-1-ene-1-carboxylic acid], `CCC(CC)O[C@@H]1C=C(C(=O)O)C[C@H](NC(=O)c2cc(-c3ccc(Cl)cc3)n[nH]2)[C@H]1NC(C)=O` [Compound 12b, (3R,4R,5S)-4-acetamido-5-(3-(4-chlorophenyl)-1H-pyrazole-5-carboxamido)-3-(pentan-3-yloxy) cyclohex-1-ene-1-carboxylic acid] is higher in “Inhibitory rate” value: 42.81% for the first, 50.43% for the second.

Compared with `CCC(CC)O[C@@H]1C=C(C(=O)O)C[C@H](NC(=O)c2cc(-c3ccc(Cl)cc3)nn2CC2CCCCC2)[C@H]1NC(C)=O` [Compound 16c, (3R,4R,5S)-4-acetamido-5-(3-(4-chlorophenyl)-1-(cyclohexylmethyl)-1H-pyrazole-5-carboxamido)-3-(pentan-3-yloxy) cyclohex-1-ene-1-carboxylic acid], `CCC(CC)O[C@@H]1C=C(C(=O)O)C[C@H](NC(=O)c2cc(-c3ccc(Cl)cc3)nn2CC2CCC2)[C@H]1NC(C)=O` [Compound 16b, (3R,4R,5S)-4-acetamido-5-(3-(4-chlorophenyl)-1-(cyclobutylmethyl)-1H-pyrazole-5-carboxamido)-3-(pentan-3-yloxy) cyclohex-1-ene-1-carboxylic acid] is lower in “Inhibitory rate” value: 48.50% for the first, 39.81% for the second.

Going from `CCC(CC)O[C@@H]1C=C(C(=O)O)C[C@H](NC(=O)c2cc(C3CC3)nn2-c2ccccc2)[C@H]1NC(C)=O` [Compound 26a, (3R,4R,5S)-4-acetamido-5-(3-cyclopropyl-1-phenyl-1H-pyrazole-5-carboxamido)-3-(pentan-3-yloxy) cyclohex-1-ene-1-carboxylic acid] to `CCC(CC)O[C@@H]1C=C(C(=O)O)C[C@H](NC(=O)c2cc(C3CC3)n(-c3ccccc3)n2)[C@H]1NC(C)=O` [Compound 24a, (3R,4R,5S)-4-acetamido-5-(5-cyclopropyl-1-phenyl-1H-pyrazole-3-carboxamido)-3-(pentan-3-yloxy) cyclohex-1-ene-1-carboxylic acid], the “Inhibitory rate” value rises from 30.41% to 30.57%.

Compared with `CCC(CC)O[C@@H]1C=C(C(=O)O)C[C@H](NC(=O)c2cc(-c3ccc(OC)cc3)n[nH]2)[C@H]1NC(C)=O` [Compound 12e, (3R,4R,5S)-4-acetamido-5-(3-(4-methoxyphenyl)-1H-pyrazole-5-carboxamido)-3-(pentan-3-yloxy) cyclohex-1-ene-1-carboxylic acid], `CCC(CC)O[C@@H]1C=C(C(=O)O)C[C@H](NC(=O)c2cc(-c3ccc(F)cc3)n[nH]2)[C@H]1NC(C)=O` [Compound 12c, (3R,4R,5S)-4-acetamido-5-(3-(4-fluorophenyl)-1H-pyrazole-5-carboxamido)-3-(pentan-3-yloxy) cyclohex-1-ene-1-carboxylic acid] is higher in “Inhibitory rate” value: 42.02% for the first, 56.45% for the second.

Compared with `CCC(CC)O[C@@H]1C=C(C(=O)O)C[C@H](NC(=O)c2cc(C3CC3)n(-c3ccc(C(F)(F)F)cc3)n2)[C@H]1NC(C)=O` [Compound 24e, (3R,4R,5S)-4-acetamido-5-(5-cyclopropyl-1-(4-(trifluoromethyl)phenyl)-1H-pyrazole-3-carboxamido)-3-(pentan-3-yloxy) cyclohex-1-ene-1-carboxylic acid], `CCC(CC)O[C@@H]1C=C(C(=O)O)C[C@H](NC(=O)c2cc(C3CC3)n(-c3ccc(Br)cc3)n2)[C@H]1NC(C)=O` [Compound 24d, (3R,4R,5S)-4-acetamido-5-(1-(4-bromophenyl)-5-cyclopropyl-1H-pyrazole-3-carboxamido)-3-(pentan-3-yloxy) cyclohex-1-ene-1-carboxylic acid] is lower in “Inhibitory rate” value: 44.47% for the first, 42.68% for the second.

First: CCC(CC)O[C@@H]1C=C(C(=O)O)C[C@H](NC(=O)c2cnn(Cc3ccc(OC)cc3)c2)[C@H]1NC(C)=O [Compound 6f, (3R,4R,5S)-4-acetamido-5-(1-(4-methoxybenzyl)-1H-pyrazole-4-carboxamido)-3-(pentan-3-yloxy) cyclohex-1-ene-1-carboxylic acid]
Second: CCC(CC)O[C@@H]1C=C(C(=O)O)C[C@H](NC(=O)c2cnn(-c3ccc(OC)cc3)c2)[C@H]1NC(C)=O [Compound 6j, (3R,4R,5S)-4-acetamido-5-(1-(4-methoxyphenyl)-1H-pyrazole-4-carboxamido)-3-(pentan-3-yloxy) cyclohex-1-ene-1-carboxylic acid]
The “Inhibitory rate” value of the first is lower: 26.79% for the first, 34.15% for the second.

Compared with `CCC(CC)O[C@@H]1C=C(C(=O)O)C[C@H](NC(=O)c2cnn(Cc3ccccc3Cl)c2)[C@H]1NC(C)=O` [Compound 6b, (3R,4R,5S)-4-acetamido-5-(1-(2-chlorobenzyl)-1H-pyrazole-4-carboxamido)-3-(pentan-3-yloxy) cyclohex-1-ene-1-carboxylic acid], `CCC(CC)O[C@@H]1C=C(C(=O)O)C[C@H](NC(=O)c2cnn(Cc3ccccc3)c2)[C@H]1NC(C)=O` [Compound 6a, (3R,4R,5S)-4-acetamido-5-(1-benzyl-1H-pyrazole-4-carboxamido)-3-(pentan-3-yloxy) cyclohex-1-ene-1-carboxylic acid] is higher in “Inhibitory rate” value: 18.88% for the first, 32.02% for the second.

Going from `CCC(CC)O[C@@H]1C=C(C(=O)O)C[C@H](NC(=O)c2cc(-c3ccc(Cl)cc3)nn2CC2CC2)[C@H]1NC(C)=O` [Compound 16a, (3R,4R,5S)-4-acetamido-5-(3-(4-chlorophenyl)-1-(cyclopropylmethyl)-1H-pyrazole-5-carboxamido)-3-(pentan-3-yloxy) cyclohex-1-ene-1-carboxylic acid] to `CCC(CC)O[C@@H]1C=C(C(=O)O)C[C@H](NC(=O)c2cc(C3CC3)nn2-c2ccc(Br)cc2)[C@H]1NC(C)=O` [Compound 26d, (3R,4R,5S)-4-acetamido-5-(1-(4-bromophenyl)-3-cyclopropyl-1H-pyrazole-5-carboxamido)-3-(pentan-3-yloxy) cyclohex-1-ene-1-carboxylic acid], the “Inhibitory rate” value rises from 31.50% to 37.17%.

Compared with `CCC(CC)O[C@@H]1C=C(C(=O)O)C[C@H](NC(=O)c2cnn(-c3ccccc3C)c2)[C@H]1NC(C)=O` [Compound 6h, (3R,4R,5S)-4-acetamido-3-(pentan-3-yloxy)-5-(1-(o-tolyl)-1H-pyrazole-4-carboxamido) cyclohex-1-ene-1-carboxylic acid], `CCC(CC)O[C@@H]1C=C(C(=O)O)C[C@H](NC(=O)c2cnn(Cc3ccc(C(F)(F)F)cc3)c2)[C@H]1NC(C)=O` [Compound 6g, (3R,4R,5S)-4-acetamido-3-(pentan-3-yloxy)-5-(1-(4-(trifluoromethyl)benzyl)-1H-pyrazole-4-carboxamido) cyclohex-1-ene-1-carboxylic acid] is lower in “Inhibitory rate” value: 38.37% for the first, 21.72% for the second.

Compared with `CCC(CC)O[C@@H]1C=C(C(=O)O)C[C@H](NC(=O)c2cc(-c3ccc(C(F)(F)F)cc3)n[nH]2)[C@H]1NC(C)=O` [Compound 12d, (3R,4R,5S)-4-acetamido-3-(pentan-3-yloxy)-5-(3-(4-(trifluoromethyl)phenyl)-1H-pyrazole-5-carboxamido) cyclohex-1-ene-1-carboxylic acid], `CCC(CC)O[C@@H]1C=C(C(=O)O)C[C@H](NC(=O)c2cc(-c3cccs3)n[nH]2)[C@H]1NC(C)=O` [Compound 12f, (3R,4R,5S)-4-acetamido-3-(pentan-3-yloxy)-5-(3-(thiophen-2-yl)-1H-pyrazole-5-carboxamido) cyclohex-1-ene-1-carboxylic acid] is lower in “Inhibitory rate” value: 46.7% for the first, 40.02% for the second.

For `CCC(CC)O[C@@H]1C=C(C(=O)O)C[C@H](N)[C@H]1NC(C)=O` [OC, oseltamivir carboxylate, reference compound], the “Inhibitory rate” value was 97.46%.

From article PMC8073777, “Design, Synthesis, Biological Evaluation and In Silico Studies of Pyrazole-Based NH2-Acyl Oseltamivir Analogues as Potent Neuraminidase Inhibitors” (Pharmaceuticals, 2021)
